Measured values from patent US20240109900A1, “AZABICYCLIC SHP2 INHIBITORS” (IRBM S.P.A., priority 2021, published 2024).

Columns and labels:
[1] = molecular target: SHP-2 enzyme (Met1-Leu525) (Homo sapiens (Human), UniProt Q06124); experiment: SHP2 inhibition enzymatic assay; format: biochemical; conditions: 0.5 nM SHP-2 activated by 500 nM IRS1 peptide, 75 μM DiFMUP substrate; read-out: SHP2wt-IC50
Method in brief: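 Compounds were preincubated 30 min with 0.5 nM SHP-2 (Met1-Leu525) plus 500 nM IRS1 activating peptide (pH 7.2 HEPES, 5 mM DTT), then 75 μM DiFMUP substrate reacted 30 min at room temperature. After bpV quench, DiFMUP fluorescence gave % inhibition; four-parameter logistic fit yielded IC50.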

[2] = tested on: ERK phosphorylation in KYSE-520 cells; experiment: Phospho-ERK cellular assay; format: cell-based; conditions: Homo sapiens, KYSE-520, 2 h, KYSE-520 cells, 2 h at 37° C., phospho-ERK1/2 (Thr202/Tyr204) TR-FRET; read-out: PERK IC50
Method in brief: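 TR-FRET read-out of ERK1/2 Thr202/Tyr204 phosphorylation was taken after overnight antibody incubation at room temperature. Before that, KYSE-520 cells were treated 2 h at 37 °C with compound dilutions and lysed 30 min. Percent inhibition relative to vehicle and cell-free wells was fitted four-parametrically to give IC50.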

SHP-2 enzyme (Met1-Leu525), sequence (Q06124 1-525): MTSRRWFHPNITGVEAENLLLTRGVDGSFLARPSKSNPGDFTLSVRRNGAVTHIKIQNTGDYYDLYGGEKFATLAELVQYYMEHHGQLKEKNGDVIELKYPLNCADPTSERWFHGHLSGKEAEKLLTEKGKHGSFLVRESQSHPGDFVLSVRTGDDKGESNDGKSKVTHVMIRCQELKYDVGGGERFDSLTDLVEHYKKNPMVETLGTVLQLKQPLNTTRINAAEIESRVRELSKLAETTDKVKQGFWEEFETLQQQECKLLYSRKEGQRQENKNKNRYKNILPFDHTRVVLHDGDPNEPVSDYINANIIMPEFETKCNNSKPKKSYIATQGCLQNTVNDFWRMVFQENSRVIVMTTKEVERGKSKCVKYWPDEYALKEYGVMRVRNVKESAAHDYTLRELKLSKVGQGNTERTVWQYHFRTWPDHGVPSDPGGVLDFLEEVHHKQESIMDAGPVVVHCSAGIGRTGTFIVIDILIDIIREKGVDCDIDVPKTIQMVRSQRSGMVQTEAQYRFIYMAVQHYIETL

| Structure (SMILES) | IC50 [1] | IC50 [2] |
| --- | --- | --- |
| NC[C@]1(c2ccccc2F)[C@@H]2CCN(c3cnc4c(-c5ccc6cccnc6c5)n[nH]c4n3)C[C@@H]21 [Example 252, ((1S,6R,7R)-7-(2-fluorophenyl)-3-(3-(quinolin-7-yl)-1H-pyrazolo[3,4-b]pyrazin-6-yl)-3-azabicyclo[4.1.0]heptan-7-yl)methanamine] | < 0.5 µM | < 1 µM |
| NC[C@]1(c2ccccc2F)[C@@H]2CCN(c3cnc4c(-c5cc(Cl)c(C(N)=O)cc5F)n[nH]c4n3)C[C@@H]21 [Example 253, 4-(6-((1S,6R,7R)-7-(aminomethyl)-7-(2-fluorophenyl)-3-azabicyclo[4.1.0]heptan-3-yl)-1H-pyrazolo[3,4-b]pyrazin-3-yl)-2-chloro-5-fluorobenzamide] | < 0.5 µM | < 1 µM |
| NC[C@]1(c2ccccc2F)[C@@H]2CCN(c3cnc4c(-c5ccc6cn[nH]c(=O)c6c5)n[nH]c4n3)C[C@@H]21 [Example 254, 7-(6-((1S,6R,7R)-7-(aminomethyl)-7-(2-fluorophenyl)-3-azabicyclo[4.1.0]heptan-3-yl)-1H-pyrazolo[3,4-b]pyrazin-3-yl)phthalazin-1(2H)-one] | < 0.5 µM | < 1 µM |
| NC[C@]1(c2ccccc2F)[C@@H]2CCN(c3cnc4c(-c5ccc6cc(Cl)cnc6c5)n[nH]c4n3)C[C@@H]21 [Example 255, ((1S,6R,7R)-3-(3-(3-chloroquinolin-7-yl)-1H-pyrazolo[3,4-b]pyrazin-6-yl)-7-(2-fluorophenyl)-3-azabicyclo[4.1.0]heptan-7-yl)methanamine] | < 0.5 µM | > 5 µM |
| NC[C@]1(c2ccccc2F)[C@@H]2CCN(c3cnc4c(-c5ccc(-c6cn[nH]c6)cc5Cl)n[nH]c4n3)C[C@@H]21 [Example 256, ((1S,6R,7R)-3-(3-(2-chloro-4-(1H-pyrazol-4-yl)phenyl)-1H-pyrazolo[3,4-b]pyrazin-6-yl)-7-(2-fluorophenyl)-3-azabicyclo[4.1.0]heptan-7-yl)methanamine] | < 0.5 µM | < 1 µM |
| NC[C@]1(c2ccccc2F)[C@@H]2CCN(c3cnc4c(-c5ccc(C(=O)O)c6ccccc56)n[nH]c4n3)C[C@@H]21 [Example 257, 4-(6-((1S,6R,7R)-7-(aminomethyl)-7-(2-fluorophenyl)-3-azabicyclo[4.1.0]heptan-3-yl)-1H-pyrazolo[3,4-b]pyrazin-3-yl)-1-naphthoic acid] | < 0.5 µM | > 5 µM |
| NC[C@]1(c2ccccc2F)[C@@H]2CCN(c3cnc4c(-c5ccc6nccc(N)c6c5)n[nH]c4n3)C[C@@H]21 [Example 258, 6-(6-((1S,6R,7R)-7-(aminomethyl)-7-(2-fluorophenyl)-3-azabicyclo[4.1.0]heptan-3-yl)-1H-pyrazolo[3,4-b]pyrazin-3-yl)quinolin-4-amine] | < 0.5 µM | > 5 µM |
| Cc1c(-c2n[nH]c3nc(N4CC[C@@H]5[C@H](C4)[C@@]5(CN)c4ccccc4F)cnc23)ccc2[nH]c(=O)[nH]c12 [Example 259, 5-(6-((1S,6R,7R)-7-(aminomethyl)-7-(2-fluorophenyl)-3-azabicyclo[4.1.0]heptan-3-yl)-1H-pyrazolo[3,4-b]pyrazin-3-yl)-4-methyl-1,3-dihydro-2H-benzo[d]imidazol-2-one] | < 0.5 µM | < 1 µM |
| NC[C@]1(c2ccccc2F)[C@@H]2CCN(c3cnc4c(-c5ccc6nccc(=O)n6c5)n[nH]c4n3)C[C@@H]21 [Example 260, 7-(6-((1S,6R,7R)-7-(aminomethyl)-7-(2-fluorophenyl)-3-azabicyclo[4.1.0]heptan-3-yl)-1H-pyrazolo[3,4-b]pyrazin-3-yl)-4H-pyrido[1,2-a]pyrimidin-4-one] | < 0.5 µM | > 5 µM |
| Cc1c(-c2n[nH]c3nc(N4CC[C@@H]5[C@H](C4)[C@@]5(CN)c4ccccc4F)cnc23)ccc2c1n(C)c(=O)n2C [Example 261, 5-(6-((1S,6R,7R)-7-(aminomethyl)-7-(2-fluorophenyl)-3-azabicyclo[4.1.0]heptan-3-yl)-1H-pyrazolo[3,4-b]pyrazin-3-yl)-1,3,4-trimethyl-1,3-dihydro-2H-benzo[d]imidazol-2-one] | < 0.5 µM | < 1 µM |
